In patent US20090221522A1, “METHODS TO CORRECT GENE SET EXPRESSION PROFILES TO DRUG SENSITIVITY” (The Johns Hopkins University, priority 2008, published 2009):

Tested on: direct pancreatic cancer xenografts (fine needle aspiration cells)
Experiment: Ex vivo perturbability assay, low-density microarray RT-PCR
Format: cell-based
Design: key to RRM1 gene expression / NFKB1 gene expression / BNIP3L gene expression / VHL gene expression / DCK gene expression / HIF1B gene expression / IGF1R gene expression / MAPK1 gene expression / MAP2K2 gene expression / JUN gene expression / IHH gene expression: % of untreated control (treated sample normalized to untreated)
Conditions: treated normalized to untreated control
From the text: Direct pancreatic cancer derived xenografts: Resected pancreatic adenocarcinomas are routinely implanted in nude mice at the Johns Hopkins Medical Institutions as a method to obtain enriched populations of neoplastic cells under an IRB-approved protocol from residual pancreatic cancer tumors. Tumor specimens from Whipple resection specimens were divided into 2-3 mm^3 pieces in antibiotic-containing RPMI media. Pieces of non-necrotic tissue were selected and immersed in Matrigel. Under anesthesia with isofluorane, tumors were implanted into five-to-six week-old female athymic (nu/nu) mice purchased from Harlan (Harlan Laboratories, Washington, D.C.). This research protocol was approved by the Johns Hopkins University Animal Use and Care Committee arid animals were maintained in accordance to guidelines of the American Association of Laboratory Animal Care. Tumors were propagated to subsequent cohorts of mice until a sufficient number were available for drug testing.
Fine needle aspiration (FNA): FNAs on mice were performed according to standard cytopathologic practice using 10 cc syringes and 25-gauge needles. The procedure was performed under inhaled general anesthesia with isofluorane. During each FNA procedure the first pass was smeared onto glass slides and used for morphologic analysis and quality control, (DiffQuik™ and Papanicoloau), and the second through sixth passes were used to acquire viable cells.
Ex vivo assay: FNA passes used to acquire viable cells were immediately transferred into 10 ml sterile prewarmed complete RPMI-1640 culture medium containing 10% FBS, penicillin (200 ug/ml), and streptomycin (200 ug/ml). Equivalent aliquots of cells were seeded in two wells of a 6-well polypropylene microplate. […] Following treatment, non-adherent and adherent cells (collected by scraping) were pooled together in a 1.5 mL microcentrifuge tube and centrifuged at 500 g for 5 mm at 4° C. After washing with PBS, cells were lysed in 100 μL of ice-cold RLT.
RNA extraction and cDNA generation: Total RNA was extracted from cells using the RNeasy™ Mini Kit (Qiagen, Valencia, Calif.) following the manufacturer's instructions. cDNA was synthesized using iScript cDNA synthesis kit (Bio-Rad) following the manufacturer's instructions.
Low-density micro arrays (LDMA): The samples were run in a customized assay with a 384-well format (ABI, Foster City, Calif.), where the expression of 45 to 381 relevant genes can be quantitatively tested. For this example, the array was designed with 8 replicated sections containing 48 wells, with primers of one gene per well: 3 housekeeping genes (HK: UBC, HPRT, SDHA), and 45 genes of interest. 50 μL of cDNA plus 50 μL of ABI mastermix were loaded onto each of two contiguous lanes to have duplicated readouts of every sample, and were run by real-time reverse transcriptase PCR (RT-PCR). The amount of change in the target genes was calculated by comparing the threshold cycle (CT) of each gene to the geometric mean of the CTs of the HK genes. Relative expression of the target genes was estimated using the formula: relative expression=2−^ΔCT, where ΔCT=CT (target gene)−CT (average of the 3 HK genes). The experiment was run in duplicate and mean values are analyzed.
Data analysis: The expression level of each gene in the treated sample was normalized to that of the untreated control. A significant change was defined when the gene expression either increases two-fold or more (>200%), or decreases to half or more (<50%). The rest is considered uninformative.

Nc1ccn([C@@H]2O[C@H](CO)[C@@H](O)C2(F)F)c(=O)n1 [gemcitabine]
AXIN2 gene expression (case #1): 67
BAX gene expression (case #1): 91
BNIP3L gene expression (case #1): 109
BRAF gene expression (case #1): 116
BRCA1 gene expression (case #1): 81
CCND1 gene expression (case #1): 127
CXCR4 gene expression (case #1): 100
CyclinB1 gene expression (case #1): 68
DCK gene expression (case #1): 164
EGFR gene expression (case #1): 124
ERCC1 gene expression (case #1): 107
FOS gene expression (case #1): 113
GADD45A gene expression (case #1): 108
GLI2 gene expression (case #1): 72
HIF1A gene expression (case #1): 126
HIF1B gene expression (case #1): 99
IGF1R gene expression (case #1): 51
IGFBP3 gene expression (case #1): 135
IHH gene expression (case #1): 113
MAP2K2 gene expression (case #1): 127
MAPK3 gene expression (case #1): 152
MDM2 gene expression (case #1): 134
MSLN gene expression (case #1): 101
NOTCH1 gene expression (case #1): 158
NOTCH2 gene expression (case #1): 113
PLK1 gene expression (case #1): 50
PSCA gene expression (case #1): 106
PTCH gene expression (case #1): 81
SHH gene expression (case #1): 70
Survivin gene expression (case #1): 81
TGFA gene expression (case #1): 99
VEGF gene expression (case #1): 106
VHL gene expression (case #1): 104
p21 gene expression (case #1): 96
AXIN2 gene expression (case #2): 63
BAX gene expression (case #2): 95
BNIP3L gene expression (case #2): 96
BRAF gene expression (case #2): 98
BRCA1 gene expression (case #2): 63
CCND1 gene expression (case #2): 128
CXCR4 gene expression (case #2): 5
CyclinB1 gene expression (case #2): 99
DCK gene expression (case #2): 112
EGFR gene expression (case #2): 101
ERCC1 gene expression (case #2): 78
FOS gene expression (case #2): 115
GADD45A gene expression (case #2): 108
GLI2 gene expression (case #2): 82
HIF1A gene expression (case #2): 111
HIF1B gene expression (case #2): 129
IGF1R gene expression (case #2): 105
IGFBP3 gene expression (case #2): 205
IHH gene expression (case #2): 131
MAP2K2 gene expression (case #2): 78
MAPK1 gene expression (case #2): 104
MAPK3 gene expression (case #2): 71
MDM2 gene expression (case #2): 92
MSLN gene expression (case #2): 118
NFKB1 gene expression (case #2): 138
NOTCH1 gene expression (case #2): 138
NOTCH2 gene expression (case #2): 119
PLK1 gene expression (case #2): 34
PSCA gene expression (case #2): 127
PTCH gene expression (case #2): 102
RRM1 gene expression (case #2): 166
SHH gene expression (case #2): 108
Survivin gene expression (case #2): 110
TGFA gene expression (case #2): 113
VEGF gene expression (case #2): 101
VHL gene expression (case #2): 116
p21 gene expression (case #2): 110
AXIN2 gene expression (case #3): 44
BAX gene expression (case #3): 78
BNIP3L gene expression (case #3): 82
BRAF gene expression (case #3): 93
BRCA1 gene expression (case #3): 84
CCND1 gene expression (case #3): 106
CXCR4 gene expression (case #3): 43
CyclinB1 gene expression (case #3): 48
DCK gene expression (case #3): 80
EGFR gene expression (case #3): 70
ERCC1 gene expression (case #3): 88
FOS gene expression (case #3): 123
GADD45A gene expression (case #3): 104
GLI2 gene expression (case #3): 73
HIF1A gene expression (case #3): 106
HIF1B gene expression (case #3): 106
IGF1R gene expression (case #3): 66
IGFBP3 gene expression (case #3): 49
IHH gene expression (case #3): 130
MAP2K2 gene expression (case #3): 106
MAPK3 gene expression (case #3): 109
MDM2 gene expression (case #3): 137
MSLN gene expression (case #3): 91
NFKB1 gene expression (case #3): 94
NOTCH1 gene expression (case #3): 132
NOTCH2 gene expression (case #3): 103
PLK1 gene expression (case #3): 36
PSCA gene expression (case #3): 115
PTCH gene expression (case #3): 53
RRM1 gene expression (case #3): 81
SHH gene expression (case #3): 65
Survivin gene expression (case #3): 58
TGFA gene expression (case #3): 92
VEGF gene expression (case #3): 86
VHL gene expression (case #3): 118
p21 gene expression (case #3): 99
AXIN2 gene expression (case #4): 142
BAX gene expression (case #4): 100
BNIP3L gene expression (case #4): 115
BRAF gene expression (case #4): 175
BRCA1 gene expression (case #4): 343
CCND1 gene expression (case #4): 171
CXCR4 gene expression (case #4): 13
CyclinB1 gene expression (case #4): 124
DCK gene expression (case #4): 176
EGFR gene expression (case #4): 54
ERCC1 gene expression (case #4): 94
FOS gene expression (case #4): 108
GADD45A gene expression (case #4): 78
GLI2 gene expression (case #4): 11
HIF1A gene expression (case #4): 146
HIF1B gene expression (case #4): 56
IGF1R gene expression (case #4): 41
IGFBP3 gene expression (case #4): 130
IHH gene expression (case #4): 92
JUN gene expression (case #4): 83
MAP2K2 gene expression (case #4): 146
MAPK1 gene expression (case #4): 68
MAPK3 gene expression (case #4): 108
MDM2 gene expression (case #4): 43
MSLN gene expression (case #4): 89
NFKB1 gene expression (case #4): 104
NOTCH1 gene expression (case #4): 134
NOTCH2 gene expression (case #4): 92
PLK1 gene expression (case #4): 15
PSCA gene expression (case #4): 81
PTCH gene expression (case #4): 93
RRM1 gene expression (case #4): 79
SHH gene expression (case #4): 91
Survivin gene expression (case #4): 166
TGFA gene expression (case #4): 85
VEGF gene expression (case #4): 103
VHL gene expression (case #4): 127
p21 gene expression (case #4): 102
AXIN2 gene expression (case #5): 210
BAX gene expression (case #5): 109
BNIP3L gene expression (case #5): 90
BRAF gene expression (case #5): 146
BRCA1 gene expression (case #5): 95
CCND1 gene expression (case #5): 141
CXCR4 gene expression (case #5): 229
CyclinB1 gene expression (case #5): 53
DCK gene expression (case #5): 132
EGFR gene expression (case #5): 71
ERCC1 gene expression (case #5): 105
FOS gene expression (case #5): 112
GADD45A gene expression (case #5): 121
GLI2 gene expression (case #5): 118
HIF1A gene expression (case #5): 108
HIF1B gene expression (case #5): 65
IGF1R gene expression (case #5): 61
IGFBP3 gene expression (case #5): 122
IHH gene expression (case #5): 141
JUN gene expression (case #5): 135
MAP2K2 gene expression (case #5): 151
MAPK1 gene expression (case #5): 86
MAPK3 gene expression (case #5): 95
MDM2 gene expression (case #5): 73
MSLN gene expression (case #5): 100
NFKB1 gene expression (case #5): 163
NOTCH1 gene expression (case #5): 89
NOTCH2 gene expression (case #5): 56
PLK1 gene expression (case #5): 21
PSCA gene expression (case #5): 102
PTCH gene expression (case #5): 48
RRM1 gene expression (case #5): 92
SHH gene expression (case #5): 113
Survivin gene expression (case #5): 67
TGFA gene expression (case #5): 97
VEGF gene expression (case #5): 107
VHL gene expression (case #5): 79
p21 gene expression (case #5): 143
